{"source": "patent US20060069132A1", "about": "“Azolecarboxamide herbicides” (priority 2004, published 2006)", "key": {"barnyardgrass": {"test_system": "barnyardgrass", "assay": "Test A pre-/postemergence herbicide test", "type": "in vivo, Echinochloa crus-galli", "how_it_was_run": "(§1)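 Both application timings were run together: directed soil spray over freshly planted seeds in sandy loam, and runoff spray onto 2–10 cm seedlings. Evaluation after ~10 days in greenhouse used a 0–100 visual scale versus untreated controls.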"}, "large crabgrass": {"test_system": "large crabgrass", "assay": "Test A pre-/postemergence herbicide test", "type": "in vivo, Digitaria sanguinalis", "how_it_was_run": "as §1"}, "redroot pigweed": {"test_system": "redroot pigweed", "assay": "Test A pre-/postemergence herbicide test", "type": "in vivo, Amaranthus retroflexus", "how_it_was_run": "as §1"}, "bermudagrass": {"test_system": "bermudagrass", "assay": "Test C pre-/postemergence herbicide test", "type": "in vivo, Cynodon dactylon", "details": "for Plant response rating, Bermudagrass: preemergence", "how_it_was_run": "(§2)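 Emerged plants at the 1- to 4-leaf stage (2–18 cm), or freshly planted seeds, received test chemicals in a non-phytotoxic solvent mixture with surfactant. Response was visually scored against controls after 12 to 14 days in the greenhouse, on a 0 (no effect) to 100 (complete control) scale.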"}, "woolly cupgrass": {"test_system": "woolly cupgrass", "assay": "Test C pre-/postemergence herbicide test", "type": "in vivo, Eriochloa villosa", "details": "preemergence", "how_it_was_run": "as §2"}, "giant foxtail": {"test_system": "giant foxtail", "assay": "Test C pre-/postemergence herbicide test", "type": "in vivo, Setaria faberi", "details": "preemergence", "how_it_was_run": "as §2"}, "goosegrass": {"test_system": "goosegrass", "assay": "Test C pre-/postemergence herbicide test", "type": "in vivo, Eleusine indica", "details": "preemergence", "how_it_was_run": "as §2"}, "common ragweed": {"test_system": "common ragweed", "assay": "Test C pre-/postemergence herbicide test", "type": "in vivo, Ambrosia elatior", "parameters": "key to Plant response rating, Ragweed: 0 = no effect, 100 = complete control", "details": "preemergence", "how_it_was_run": "as §2"}, "[1]": {"test_system": "common (oilseed) sunflower", "assay": "Test C pre-/postemergence herbicide test", "type": "in vivo, Helianthus annuus", "details": "preemergence", "how_it_was_run": "as §2"}, "[2]": {"test_system": "smallflower umbrella sedge", "assay": "Test C flooded paddy test", "type": "in vivo, Cyperus difformis"}, "[3]": {"details": "Postemergence, 500 g ai/ha, 0 to 100 scale, 0 no effect, 100 complete control"}, "[4]": {"details": "Postemergence, 2000 g ai/ha, 0 to 100 scale, 0 no effect, 100 complete control"}, "[5]": {"details": "Preemergence, 2000 g ai/ha, visual rating, 0 to 100 scale (0 no effect, 100 complete control)"}, "[6]": {"details": "preemergence, 500 g ai/ha, visual injury, 0 to 100 scale (0 no effect, 100 complete control)"}, "[7]": {"details": "125 g ai/ha, scale 0 (no effect) to 100 (complete control), visual, 12 to 14 days"}, "[8]": {"details": "500 g ai/ha, scale 0 to 100 (0 no effect, 100 complete control), visual, 12 to 14 days"}}}
{"smiles": "CCNC(=O)c1ccc(F)c(NC(=O)C2CC(C(C)(C)C)=NN2CC)c1", "note": "(racemic) [Compound 269]", "values": [{"measurement": "Barnyardgrass plant response rating", "setting": "barnyardgrass; [3]", "value": 70}, {"measurement": "Plant response rating, Barnyardgrass", "setting": "barnyardgrass; [4]", "value": 80}, {"measurement": "Barnyardgrass plant response rating", "setting": "barnyardgrass; [5]", "value": 100}, {"measurement": "Barnyardgrass plant response rating", "setting": "barnyardgrass; [6]", "value": 95}, {"measurement": "Crabgrass, Large plant response rating", "setting": "large crabgrass; [3]", "value": 35}, {"measurement": "Plant response rating, Crabgrass, Large", "setting": "large crabgrass; [4]", "value": 80}, {"measurement": "Crabgrass, Large plant response rating", "setting": "large crabgrass; [5]", "value": 100}, {"measurement": "Crabgrass, Large plant response rating", "setting": "large crabgrass; [6]", "value": 65}, {"measurement": "Pigweed plant response rating", "setting": "redroot pigweed; [3]", "value": 35}, {"measurement": "Plant response rating, Pigweed", "setting": "redroot pigweed; [4]", "value": 50}, {"measurement": "Pigweed plant response rating", "setting": "redroot pigweed; [5]", "value": 100}, {"measurement": "Pigweed plant response rating", "setting": "redroot pigweed; [6]", "value": 100}, {"measurement": "Plant response rating, Bermudagrass", "setting": "bermudagrass; 62 g ai/ha, scale 0 to 100, 0 no effect, 100 complete control", "value": 100}, {"measurement": "Plant response rating, Bermudagrass", "setting": "bermudagrass; [7]", "value": 100}, {"measurement": "Plant response rating, Bermudagrass", "setting": "bermudagrass; 250 g ai/ha, scale 0-100", "value": 100}, {"measurement": "Bermudagrass plant response rating", "setting": "bermudagrass; Preemergence, 500 g ai/ha, scale 0 to 100, 0 no effect, 100 complete control", "value": 100}, {"measurement": "Plant response rating, Cupgrass, Woolly", "setting": "woolly cupgrass; 62 g ai/ha, scale 0 to 100", "value": 10}, {"measurement": "Plant response rating, Cupgrass, Woolly", "setting": "woolly cupgrass; [7]", "value": 40}, {"measurement": "Plant response rating, Cupgrass, Woolly", "setting": "woolly cupgrass; 250 g ai/ha, scale 0-100", "value": 60}, {"measurement": "Plant response rating, Cupgrass, Woolly", "setting": "woolly cupgrass; [8]", "value": 85}, {"measurement": "Plant response rating, Foxtail, Giant", "setting": "giant foxtail; 62 g ai/ha, scale 0 to 100", "value": 50}, {"measurement": "Plant response rating, Foxtail, Giant", "setting": "giant foxtail; [7]", "value": 90}, {"measurement": "Plant response rating, Foxtail, Giant", "setting": "giant foxtail; 250 g ai/ha, scale 0-100", "value": 100}, {"measurement": "Plant response rating, Foxtail, Giant", "setting": "giant foxtail; [8]", "value": 100}, {"measurement": "Plant response rating, Goosegrass", "setting": "goosegrass; 62 g ai/ha, scale 0 to 100", "value": 70}, {"measurement": "Plant response rating, Goosegrass", "setting": "goosegrass; [7]", "value": 85}, {"measurement": "Plant response rating, Goosegrass", "setting": "goosegrass; 250 g ai/ha, scale 0-100", "value": 95}, {"measurement": "Plant response rating, Goosegrass", "setting": "goosegrass; [8]", "value": 100}, {"measurement": "Plant response rating, Ragweed", "setting": "common ragweed; 62 g ai/ha, scale 0 to 100", "value": 5}, {"measurement": "Plant response rating, Ragweed", "setting": "common ragweed; 250 g ai/ha, scale 0-100", "value": 90}, {"measurement": "Plant response rating, Ragweed", "setting": "common ragweed; [8]", "value": 90}, {"measurement": "Plant response rating, Sunflower", "setting": "[1]; 62 g ai/ha, scale 0 to 100", "value": 0}, {"measurement": "Plant response rating, Sunflower", "setting": "[1]; 250 g ai/ha, scale 0-100", "value": 5}, {"measurement": "Plant response rating, Sunflower", "setting": "[1]; [8]", "value": 15}, {"measurement": "Sedge, Umbrella plant response rating", "setting": "[2]; 62 g ai/ha, scale 0 to 100", "value": 45}, {"measurement": "Sedge, Umbrella plant response rating", "setting": "[2]; 125 g ai/ha, scale 0 to 100 (0 no effect, 100 complete control)", "value": 80}, {"measurement": "Sedge, Umbrella plant response rating", "setting": "[2]; 250 g ai/ha, scale of 0 to 100, 0 is no effect, 100 is complete control", "value": 80}, {"measurement": "Plant response rating, Sedge, Umbrella", "setting": "[2]; 500 g ai/ha, visual rating after 12 to 14 days, scale 0 to 100 (0 no effect, 100 complete control)", "value": 85}]}
